Blank lines part the entries; values can stand above or below the compound they belong to. Calls of active or inactive are those of the source. No cut-off for these calls is given here.
What was measured:
[1] = target: DNA-directed RNA polymerase, mitochondrial (Homo sapiens) (UniProt O00411); test: Inhibition of human mitochondrial RNA polymerase assessed as 13-mer product using [33P]RNA/DNA primer/templates used by […] gel electrophoresis
[2] = target: DNA-directed RNA polymerase, mitochondrial (Homo sapiens) (UniProt O00411); test: Binding affinity to human mitochondrial RNA polymerase assessed as compound incorporation using [33P]RNA/DNA primer/templates used by […] gel electrophoresis
Homo sapiens [3] = species on record: Homo sapiens; test: Inhibition of human DNA-dependent DNA polymerase gamma using calf thymus DNA/[3H]dTTP as substrate by microplate scintillation reader; conditions: concentration not given here
Homo sapiens [4] = species on record: Homo sapiens; test: Inhibition of human DNA-dependent DNA polymerase alpha using calf thymus DNA/[3H]dTTP as substrate by microplate scintillation reader; conditions: concentration not given here
[5] = Inhibition of Respiratory syncytial virus RNA polymerase in crude RSV RNP complex assessed as inhibition of [33P]CMP incorporation into RNA chain
Homo sapiens [6] = species on record: Homo sapiens; test: Inhibition of human DNA-directed RNA polymerase 2 using cytomegalovirus DNA fragment as substrate; conditions: concentration not given here
[7] = target: DNA polymerase beta (Homo sapiens) (UniProt P06746); test: Inhibition of human DNA-dependent DNA polymerase beta using calf thymus DNA/[3H]dTTP as substrate by microplate scintillation reader; conditions: concentration not given here
[8] = AUCinf in Non-naive cynomolgus monkey at 5 mg/kg, iv; format: ADME, organism-based, Macaca fascicularis; parameters: time infinity, dose 5 mg/kg, route intravenous; conditions: plasma
[9] = Volume of distribution at steady state in Non-naive cynomolgus monkey at 5 mg/kg, iv; format: ADME, organism-based, Macaca fascicularis; parameters: dose 5 mg/kg, route intravenous; conditions: in vivo, read-out: Vdss
[10] = Cytotoxicity against human HeLa cells assessed as cell viability by CellTiter-Glo luminescent assay; format: cell-based
[11] = Drug uptake in male syrian golden hamster assessed as lung NTP level at 5 mg/kg, iv after 1 hr; format: ADME, organism-based, Mesocricetus auratus; parameters: dose 5 mg/kg, route intravenous; conditions: in vivo, read-out: Drug uptake
[12] = Volume of distribution at steady state in Sprague-Dawley rat at 5 mg/kg, iv; format: ADME, organism-based; parameters: dose 5 mg/kg, route intravenous; conditions: in vivo, read-out: Vdss
[13] = test system: Respiratory syncytial virus; test: Antiviral activity against Respiratory syncytial virus subgenomic replicon system in 395 HeLa cells assessed as reduction in viral replication after 7 days by renilla luciferase assay; format: functional, organism-based; conditions: human respiratory syncytial virus, 168 h
[14] = AUCinf in male syrian golden hamster at 5 mg/kg, iv; format: ADME, organism-based, Mesocricetus auratus; parameters: time infinity, dose 5 mg/kg, route intravenous; conditions: plasma
[15] = Clearance in male syrian golden hamster at 5 mg/kg, iv; format: ADME, organism-based, Mesocricetus auratus; parameters: dose 5 mg/kg, route intravenous; conditions: in vivo
[16] = Drug metabolism in human normal bronchial epithelial cells assessed as nucleotide 5'-triphosphate level measured per million cells at 50 uM after 1 to 5 days by LC/MS/MS analysis; format: ADME, cell-based; conditions: epithelial cell
[17] = Half life in Sprague-Dawley rat at 5 mg/kg, iv; format: ADME, organism-based; parameters: dose 5 mg/kg, route intravenous; conditions: in vivo
[18] = Volume of distribution at steady state in male syrian golden hamster at 5 mg/kg, iv; format: ADME, organism-based, Mesocricetus auratus; parameters: dose 5 mg/kg, route intravenous; conditions: in vivo, read-out: Vdss
Cynomolgus monkey = test: Ratio of uridine metabolite to parent cytidine in Non-naive cynomolgus monkey at 5 mg/kg, iv; format: ADME, organism-based, Macaca fascicularis; parameters: dose 5 mg/kg, route intravenous; conditions: in vivo
Syrian golden hamster = test: Ratio of uridine metabolite to parent cytidine in male syrian golden hamster at 5 mg/kg, iv; format: ADME, organism-based, Mesocricetus auratus; parameters: dose 5 mg/kg, route intravenous; conditions: in vivo
[19] = Half life in Non-naive cynomolgus monkey at 5 mg/kg, iv; format: ADME, organism-based, Macaca fascicularis; parameters: dose 5 mg/kg, route intravenous; conditions: in vivo
[20] = Drug uptake in Non-naive cynomolgus monkey assessed as lung NTP level at 5 mg/kg, iv after 1 hr; format: ADME, organism-based, Macaca fascicularis; parameters: dose 5 mg/kg, route intravenous; conditions: in vivo, read-out: Drug uptake
[21] = Clearance in Non-naive cynomolgus monkey at 5 mg/kg, iv; format: ADME, organism-based, Macaca fascicularis; parameters: dose 5 mg/kg, route intravenous; conditions: in vivo
[22] = Drug metabolism in human Hep2 cells assessed as nucleotide 5'-triphosphate level measured per million cells at 50 uM after 1 to 5 days by LC/MS/MS analysis; format: ADME, cell-based; conditions: hep-2, 50 µM
A549 = test: Drug metabolism in human A549 cells assessed as nucleotide 5'-triphosphate level measured per million cells at 50 uM after 1 to 5 days by LC/MS/MS analysis; format: ADME, cell-based; conditions: a549, 50 µM
[23] = AUCinf in Sprague-Dawley rat at 5 mg/kg, iv; format: ADME, organism-based; parameters: time infinity, dose 5 mg/kg, route intravenous; conditions: plasma
[24] = Half life in male syrian golden hamster at 5 mg/kg, iv; format: ADME, organism-based, Mesocricetus auratus; parameters: dose 5 mg/kg, route intravenous; conditions: in vivo
[25] = Drug metabolism in human nasal cells assessed as nucleotide 5'-triphosphate level measured per million cells at 50 uM after 1 to 5 days by LC/MS/MS analysis; format: ADME, cell-based
[26] = Clearance in Sprague-Dawley rat at 5 mg/kg, iv; format: ADME, organism-based; parameters: dose 5 mg/kg, route intravenous; conditions: in vivo
[27] = Drug uptake in male syrian golden hamster assessed as lung NMP level at 5 mg/kg, iv after 1 hr; format: ADME, organism-based, Mesocricetus auratus; parameters: dose 5 mg/kg, route intravenous; conditions: in vivo, read-out: Drug uptake
[28] = Drug uptake in Non-naive cynomolgus monkey assessed as lung NMP level at 5 mg/kg, iv after 1 hr; format: ADME, organism-based, Macaca fascicularis; parameters: dose 5 mg/kg, route intravenous; conditions: in vivo, read-out: Drug uptake
[29] = test system: Respiratory syncytial virus; test: Inhibition of Respiratory syncytial virus RNA polymerase in crude RSV RNP complex assessed as inhibition of [33P]CMP incorporation into RNA chain at 10 uM
[30] = test system: Respiratory syncytial virus; test: Inhibition of Respiratory syncytial virus RNA polymerase in crude RSV RNP complex assessed as inhibition of [33P]CMP incorporation into RNA chain at 30 uM
[31] = Drug uptake in Non-naive cynomolgus monkey assessed as lung NTP level at 5 mg/kg, po 4'-chloromethyl-2'-deoxy-2'-fluorocytidine equivalent dose after 12 hrs; format: ADME, organism-based, Macaca fascicularis; parameters: dose 5 mg/kg, route oral; conditions: in vivo, read-out: Drug uptake
[32] = Drug uptake in Non-naive cynomolgus monkey assessed as lung NMP level at 5 mg/kg, po 4'-chloromethyl-2'-deoxy-2'-fluorocytidine equivalent dose after 12 hrs; format: ADME, organism-based, Macaca fascicularis; parameters: dose 5 mg/kg, route oral; conditions: in vivo, read-out: Drug uptake

DNA-directed RNA polymerase, mitochondrial (Homo sapiens), sequence (O00411 whole entry): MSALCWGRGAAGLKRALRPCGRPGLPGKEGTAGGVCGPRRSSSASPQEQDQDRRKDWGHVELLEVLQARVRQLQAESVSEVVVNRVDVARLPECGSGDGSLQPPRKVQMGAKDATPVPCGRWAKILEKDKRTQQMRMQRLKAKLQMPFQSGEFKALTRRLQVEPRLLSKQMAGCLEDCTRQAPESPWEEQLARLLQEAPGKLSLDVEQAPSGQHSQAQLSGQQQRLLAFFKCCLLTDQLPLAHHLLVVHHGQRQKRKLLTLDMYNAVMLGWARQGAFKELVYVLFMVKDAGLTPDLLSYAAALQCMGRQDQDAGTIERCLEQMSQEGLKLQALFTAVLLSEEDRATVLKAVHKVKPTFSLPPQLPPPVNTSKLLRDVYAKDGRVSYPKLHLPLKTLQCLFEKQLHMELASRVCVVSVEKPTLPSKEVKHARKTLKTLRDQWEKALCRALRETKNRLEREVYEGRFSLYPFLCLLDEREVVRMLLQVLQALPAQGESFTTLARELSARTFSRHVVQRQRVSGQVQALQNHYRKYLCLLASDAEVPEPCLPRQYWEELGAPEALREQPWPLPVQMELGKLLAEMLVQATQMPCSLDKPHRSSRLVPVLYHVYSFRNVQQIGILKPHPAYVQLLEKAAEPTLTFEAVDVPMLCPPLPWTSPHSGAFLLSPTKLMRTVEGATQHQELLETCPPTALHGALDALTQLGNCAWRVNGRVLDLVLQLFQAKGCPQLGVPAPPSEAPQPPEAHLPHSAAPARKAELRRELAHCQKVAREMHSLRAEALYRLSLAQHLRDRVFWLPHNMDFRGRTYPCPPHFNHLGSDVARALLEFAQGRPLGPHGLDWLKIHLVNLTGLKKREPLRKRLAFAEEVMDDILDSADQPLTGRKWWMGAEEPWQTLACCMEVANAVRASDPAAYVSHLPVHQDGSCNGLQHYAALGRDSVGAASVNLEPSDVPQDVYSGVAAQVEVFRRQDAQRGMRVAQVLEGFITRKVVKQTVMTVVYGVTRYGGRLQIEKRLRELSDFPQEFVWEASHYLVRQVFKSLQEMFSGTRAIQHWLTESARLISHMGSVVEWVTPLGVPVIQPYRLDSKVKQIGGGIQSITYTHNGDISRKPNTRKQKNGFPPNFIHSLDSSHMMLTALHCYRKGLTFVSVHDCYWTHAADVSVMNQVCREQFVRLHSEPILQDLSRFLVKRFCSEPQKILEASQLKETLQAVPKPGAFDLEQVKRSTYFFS

inhibition [1]: Active
Activity [2]: Active
Compound: Nc1ccn([C@@H]2O[C@H](COP(=O)(O)OP(=O)(O)OP(=O)(O)O)[C@@H](O)[C@@H]2O)c(=O)n1

inhibition (Homo sapiens [3]): < 50%
inhibition [1]: inactive
inhibition (Homo sapiens [4]): < 50%
IC50 [5]: 150 nM
inhibition (Homo sapiens [6]): < 50%
inhibition [7]: < 50%
Compound: CC[C@]1(COP(=O)(O)OP(=O)(O)OP(=O)(O)O)O[C@@H](n2ccc(N)nc2=O)[C@H](F)[C@@H]1O

IC50 [5]: 2700 nM
Compound: CSC[C@]1(COP(=O)(O)OP(=O)(O)OP(=O)(O)O)O[C@@H](n2ccc(N)nc2=O)[C@H](F)[C@@H]1O

IC50 [5]: 70 nM
Compound: CO[C@]1(COP(=O)(O)OP(=O)(O)OP(=O)(O)O)O[C@@H](n2ccc(N)nc2=O)[C@H](F)[C@@H]1O

IC50 [5]: 2000 nM
Compound: CCC[C@]1(COP(=O)(O)OP(=O)(O)OP(=O)(O)O)O[C@@H](n2ccc(N)nc2=O)[C@H](F)[C@@H]1O

IC50 [5]: 130 nM
Compound: C#C[C@]1(COP(=O)(O)OP(=O)(O)OP(=O)(O)O)O[C@@H](n2ccc(N)nc2=O)[C@H](F)[C@@H]1O

AUC(0-inf) [8]: 4360 ng·h/mL
Vd [9]: 1.8 L/kg
concentration [11]: 42.2 nM
Vd [12]: 1.67 L/kg
EC50 [13]: 420 nM
AUC(0-inf) [14]: 2460 ng·h/mL
clearance [15]: 34.1 mL/min/kg
Drug metabolism [16]: 489 pmol
half-life [17]: 1.34 h
Vd [18]: 1.07 L/kg
Ratio (Cynomolgus monkey): 0.67
Ratio (Syrian golden hamster): 0.0005
half-life [19]: 7.52 h
concentration [20]: 3070 nM
clearance [21]: 19.2 mL/min/kg
Drug metabolism [22]: 119 pmol
Drug metabolism (A549): 85.1 pmol
AUC(0-inf) [23]: 3140 ng·h/mL
half-life [24]: 1.23 h
Drug metabolism [25]: 140 pmol
clearance [26]: 25.5 mL/min/kg
concentration [27]: 144 nM
concentration [28]: 3310 nM
Compound: CC[C@]1(CO)O[C@@H](n2ccc(N)nc2=O)[C@H](F)[C@@H]1O
CC50 [10]: > 100000 nM

inhibition [29]: 38%
Compound: Nc1ccn([C@@H]2O[C@](CCl)(COP(=O)(O)OP(=O)(O)OP(=O)(O)O)[C@@H](O)C2(F)F)c(=O)n1

inhibition [30]: 6%
Compound: Nc1ccn([C@@H]2O[C@](CCl)(COP(=O)(O)OP(=O)(O)OP(=O)(O)O)[C@@H](O)[C@@H]2O)c(=O)n1

IC50 [5]: 90 nM
Compound: C=C[C@]1(COP(=O)(O)OP(=O)(O)OP(=O)(O)O)O[C@@H](n2ccc(N)nc2=O)[C@H](F)[C@@H]1O

inhibition (Homo sapiens [3]): < 50%
inhibition [1]: inactive
inhibition (Homo sapiens [4]): < 50%
IC50 [5]: 300 nM
inhibition (Homo sapiens [6]): < 50%
inhibition [7]: < 50%
Compound: [N-]=[N+]=N[C@]1(COP(=O)(O)OP(=O)(O)OP(=O)(O)O)O[C@@H](n2ccc(N)nc2=O)C(F)(F)[C@@H]1O

IC50 [5]: 1600 nM
Compound: Nc1ccn([C@@H]2O[C@](CCl)(COP(=O)(O)OP(=O)(O)OP(=O)(O)O)[C@@H](O)[C@H]2O)c(=O)n1

EC50 [13]: 60 nM
concentration [31]: 915 nM
concentration [32]: 861 nM
Compound: CC(C)[C@H](N)C(=O)O[C@H]1[C@@H](F)[C@H](n2ccc(N)nc2=O)O[C@@]1(CO)CCl
CC50 [10]: > 100000 nM

Source: ChEMBL document CHEMBL3414561, “Discovery of 4'-chloromethyl-2'-deoxy-3',5'-di-O-isobutyryl-2'-fluorocytidine (ALS-8176), a first-in-class RSV polymerase inhibitor for treatment of human respiratory syncytial virus infection” (J Med Chem, 2015)
